# Data taken from patent US11559525B2, “Therapeutic drug for dyskinesia” (Sumitomo Pharma Co., Ltd., priority 2019, dated 2023).
# Marks after values point to notes of the source that are not given here.
# Legend:
# [1] = test system: PD-LID rat model (6-OHDA-lesioned rats); assay: Oral administration of tandospirone citrate on dyskinesia-like symptoms in PD-LID rat model; assay type: in vivo
# Protocol: The behavior was observed and evaluated using the same method as Example 2. […] After 5 minutes, a levodopa containing solution was intraperitoneally administered, and the behavior was observed and evaluated. The results in the drawings are indicated in terms of mean value±standard error. The test results were statistically analyzed by comparison with the solvent administration group by Steel test using the total AIMs score in 3 hours and total AIMs score in 100 to 180 minutes as parameters. * indicates p<0.05, meaning that there is a significant difference. The dosage was described as a numerical value converted in terms of tandospirone free form.
# [2] = test system: PD-LID rat model (6-OHDA-lesioned rats); assay: ON-time prolongation action (ON score, ON time without dyskinesia) in PD-LID rat model; assay type: in vivo; conditions: oral 100 mg/kg as citrate
# Protocol: To make a PD-LID rat model, a mixture of levodopa methyl ester hydrochloride (6 mg/kg; Sigma-Aldrich) dissolved in saline and benserazide hydrochloride (15 mg/kg; Sigma-Aldrich) (hereinafter, also referred to as “levodopa containing solution”) was intraperitoneally administered once daily to 6-OHDA-lesioned rats. The levodopa containing solution was repeatedly administered for 3 weeks or longer to observe and evaluate the behavior. […] The sum of the scores for Limb AIMs, Axial AIMs, and Orolingual AIMs in 3 hours was used as the total dyskinesia-like symptom (AIMs) score. Individuals with a total AIMs score of less than 10 were excluded from the test as not manifesting a dyskinesia-like symptom. The behavior was observed and evaluated before the drug evaluation date. The rats were assigned to each dosing group by using the 3 hour total dyskinesia-like symptom (AIMs) score, Locomotive behavior score, and rat body weight as indicators, which were used for evaluation of drugs. For an indicator of dyskinesia behavior, the sum of the Limb AIMs, Axial AIMs, and Orolingual AIMs at each evaluation point was used as the AIMs score. For the rotational behavior (ON score), Locomotive behavior at each evaluation point was used as an indicator. The total ON score in 3 hours was used as the total ON score. For ON time without dyskinesia, the period during which the AIMs score is 0 and Locomotive behavior is 1 or greater at each evaluation point was added. Duration of action of levodopa without a dyskinesia symptom (ON time without dyskinesia) refers to the aggregate time with no dyskinesia during the antiparkinsonian action effective time, i.e., “ON-time”, and defined as the time during which the dyskinesia symptom (AIMs) score is 0 and the rotational behavior (Locomotive behavior) score is 1 or greater at each evaluation point after levodopa administration. […] After 5 minutes, a levodopa containing solution was intraperitoneally administered, and the behavior was observed and evaluated. The results in the drawings are indicated in terms of mean value±standard error. The test results were statistically analyzed by comparison with the solvent administration group using the Steel test with the total ON score in 3 hours or ON time without dyskinesia as an indicator. ** indicates p<0.01, meaning that there is a significant difference. For evaluation of a tape agent, the abdominal regions of the rats were shaved prior to the evaluation date. […] After 4 hours from application, a levodopa containing solution was intraperitoneally administered to observe and evaluate the behavior. The results in the drawings are indicated in terms of mean value±standard error. Individuals with 50% or more of the tape agent coming off during the test were excluded from analysis. The test results were statistically analyzed by comparison with the placebo tape administration group using Wilcoxon rank sum test with the total ON score in 3 hours or ON time without dyskinesia as an indicator. * indicates p<0.05 and ** indicates […], meaning that there is a significant difference compared to the solvent oral administration group or the placebo tape administration group.
# [3] = oral 20 mg/kg as free form, FIGS. 7A-7C
# [4] = oral 20 mg/kg as free form, FIGS. 8A-8L
structure (smiles),measurement,setting,value
"O=C1[C@@H]2[C@H]3CC[C@H](C3)[C@@H]2C(=O)N1CCCCN1CCN(c2ncccn2)CC1 [tandospirone, (1R,2S,3R,4S)—N-[4-{4-(pyrimidine-2-yl)piperadine-1-yl}butyl]-2,3-bicyclo[2.2.1]heptanedicarboximide]","(i) Indicator of degree of improvement in dyskinesia symptom, in words",[1]; oral 6.7 mg/kg as free form,No improvement
same,(i) difference in total AIMs score in 3 hours (solvent minus tandospirone),[1]; oral 6.7 mg/kg as free form,−3.1
same,"(ii) Indicator of rebound symptom of dyskinesia, in words",[1]; oral 6.7 mg/kg as free form,Exacerbating trend
same,(ii) difference in total AIMs score in 100 to 180 minutes (solvent minus tandospirone),[1]; oral 6.7 mg/kg as free form,−3.5
same,"(i) Indicator of degree of improvement in dyskinesia symptom, in words",[1]; oral 20 mg/kg as free form,No improvement
same,"(ii) Indicator of rebound symptom of dyskinesia, in words",[1]; oral 20 mg/kg as free form,Exacerbation
same,(i) difference in total AIMs score in 3 hours (solvent minus tandospirone),[1]; [3],−6.5(FIGS. 7A-7C)
same,(ii) difference in total AIMs score in 100 to 180 minutes (solvent minus tandospirone),[1]; [3],−9.1*(FIGS. 7A-7C)
same,(i) difference in total AIMs score in 3 hours (solvent minus tandospirone),[1]; [4],−8.6(FIGS. 8A-8L)
same,(ii) difference in total AIMs score in 100 to 180 minutes (solvent minus tandospirone),[1]; [4],−8.5*(FIGS. 8A-8L)
same,"(i) Indicator of degree of improvement in dyskinesia symptom, in words",[1]; oral 67 mg/kg as free form,No improvement
same,(i) difference in total AIMs score in 3 hours (solvent minus tandospirone),[1]; oral 67 mg/kg as free form,2.9
same,"(ii) Indicator of rebound symptom of dyskinesia, in words",[1]; oral 67 mg/kg as free form,Exacerbation
same,(ii) difference in total AIMs score in 100 to 180 minutes (solvent minus tandospirone),[1]; oral 67 mg/kg as free form,−10.1*
same,"ON-time without dyskinesia for 180 minutes (Locomotive behavior ≥1, and AIMs score=0)",[2],prolongation of ON time without dyskinesia was observed only at a dose at which there is a risk of side effects
